Test results from ChEMBL document CHEMBL1131994, “Discovery of subtype-selective NMDA receptor ligands: 4-benzyl-1-piperidinylalkynylpyrroles, pyrazoles and imidazoles as NR1A/2B antagonists” (Bioorg Med Chem Lett, 1999).

Assays:
[1] = target: T1, Glutamate NMDA receptor; Grin1/Grin2b (Rattus norvegicus, UniProt P35439+Q00960); assay: Inhibition of NMDA response at NR1A/2B receptor expressed in Xenopus oocytes; type: cell-based, Oocyte
Target sequence in this assay (Q00960 whole entry, other chains not shown): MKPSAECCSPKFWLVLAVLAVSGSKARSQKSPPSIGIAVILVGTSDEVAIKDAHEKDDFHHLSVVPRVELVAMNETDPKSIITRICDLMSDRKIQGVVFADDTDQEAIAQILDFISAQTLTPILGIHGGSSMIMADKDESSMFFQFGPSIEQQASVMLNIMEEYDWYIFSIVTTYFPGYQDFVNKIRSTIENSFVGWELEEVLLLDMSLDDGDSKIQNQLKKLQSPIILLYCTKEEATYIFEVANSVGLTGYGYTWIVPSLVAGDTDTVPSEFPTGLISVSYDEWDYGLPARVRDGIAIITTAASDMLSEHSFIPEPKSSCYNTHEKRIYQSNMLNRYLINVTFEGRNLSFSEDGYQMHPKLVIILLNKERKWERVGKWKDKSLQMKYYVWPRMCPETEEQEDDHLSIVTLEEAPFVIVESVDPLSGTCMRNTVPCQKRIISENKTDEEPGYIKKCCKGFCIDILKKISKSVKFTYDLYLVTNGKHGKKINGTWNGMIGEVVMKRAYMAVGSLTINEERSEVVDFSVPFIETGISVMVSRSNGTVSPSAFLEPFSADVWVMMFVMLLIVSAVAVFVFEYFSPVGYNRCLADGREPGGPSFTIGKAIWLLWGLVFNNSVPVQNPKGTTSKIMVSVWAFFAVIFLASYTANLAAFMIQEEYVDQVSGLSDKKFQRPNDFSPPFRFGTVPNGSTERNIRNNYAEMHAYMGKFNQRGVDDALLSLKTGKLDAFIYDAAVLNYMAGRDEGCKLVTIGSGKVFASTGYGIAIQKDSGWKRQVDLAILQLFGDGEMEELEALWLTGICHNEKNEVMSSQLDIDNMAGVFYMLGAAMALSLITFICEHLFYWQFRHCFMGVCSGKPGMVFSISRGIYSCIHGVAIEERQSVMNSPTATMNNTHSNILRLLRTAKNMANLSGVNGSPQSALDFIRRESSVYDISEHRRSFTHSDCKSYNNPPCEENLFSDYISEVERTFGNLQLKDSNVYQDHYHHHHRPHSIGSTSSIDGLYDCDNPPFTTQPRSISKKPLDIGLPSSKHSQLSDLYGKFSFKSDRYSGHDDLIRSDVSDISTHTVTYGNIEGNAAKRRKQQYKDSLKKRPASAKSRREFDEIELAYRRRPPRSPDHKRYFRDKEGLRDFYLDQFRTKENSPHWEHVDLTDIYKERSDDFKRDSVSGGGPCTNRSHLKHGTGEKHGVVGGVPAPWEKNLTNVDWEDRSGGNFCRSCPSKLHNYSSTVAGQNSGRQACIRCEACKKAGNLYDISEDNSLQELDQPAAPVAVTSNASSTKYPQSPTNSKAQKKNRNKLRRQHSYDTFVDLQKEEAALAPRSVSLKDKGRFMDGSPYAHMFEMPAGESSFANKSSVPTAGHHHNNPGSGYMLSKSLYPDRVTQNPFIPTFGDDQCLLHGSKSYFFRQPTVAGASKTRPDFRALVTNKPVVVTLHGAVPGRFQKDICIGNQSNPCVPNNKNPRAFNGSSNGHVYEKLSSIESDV

[2] = target: T2, Glutamate receptor ionotropic, NMDA 2C (Rattus norvegicus, UniProt P35439+Q00961); assay: Compound was tested in vitro for inhibition of NMDA response at cloned NR1A/2C receptor expressed in Xenopus oocytes; type: cell-based, frog, Oocyte
T2 sequence (Q00961 whole entry, one chain of several): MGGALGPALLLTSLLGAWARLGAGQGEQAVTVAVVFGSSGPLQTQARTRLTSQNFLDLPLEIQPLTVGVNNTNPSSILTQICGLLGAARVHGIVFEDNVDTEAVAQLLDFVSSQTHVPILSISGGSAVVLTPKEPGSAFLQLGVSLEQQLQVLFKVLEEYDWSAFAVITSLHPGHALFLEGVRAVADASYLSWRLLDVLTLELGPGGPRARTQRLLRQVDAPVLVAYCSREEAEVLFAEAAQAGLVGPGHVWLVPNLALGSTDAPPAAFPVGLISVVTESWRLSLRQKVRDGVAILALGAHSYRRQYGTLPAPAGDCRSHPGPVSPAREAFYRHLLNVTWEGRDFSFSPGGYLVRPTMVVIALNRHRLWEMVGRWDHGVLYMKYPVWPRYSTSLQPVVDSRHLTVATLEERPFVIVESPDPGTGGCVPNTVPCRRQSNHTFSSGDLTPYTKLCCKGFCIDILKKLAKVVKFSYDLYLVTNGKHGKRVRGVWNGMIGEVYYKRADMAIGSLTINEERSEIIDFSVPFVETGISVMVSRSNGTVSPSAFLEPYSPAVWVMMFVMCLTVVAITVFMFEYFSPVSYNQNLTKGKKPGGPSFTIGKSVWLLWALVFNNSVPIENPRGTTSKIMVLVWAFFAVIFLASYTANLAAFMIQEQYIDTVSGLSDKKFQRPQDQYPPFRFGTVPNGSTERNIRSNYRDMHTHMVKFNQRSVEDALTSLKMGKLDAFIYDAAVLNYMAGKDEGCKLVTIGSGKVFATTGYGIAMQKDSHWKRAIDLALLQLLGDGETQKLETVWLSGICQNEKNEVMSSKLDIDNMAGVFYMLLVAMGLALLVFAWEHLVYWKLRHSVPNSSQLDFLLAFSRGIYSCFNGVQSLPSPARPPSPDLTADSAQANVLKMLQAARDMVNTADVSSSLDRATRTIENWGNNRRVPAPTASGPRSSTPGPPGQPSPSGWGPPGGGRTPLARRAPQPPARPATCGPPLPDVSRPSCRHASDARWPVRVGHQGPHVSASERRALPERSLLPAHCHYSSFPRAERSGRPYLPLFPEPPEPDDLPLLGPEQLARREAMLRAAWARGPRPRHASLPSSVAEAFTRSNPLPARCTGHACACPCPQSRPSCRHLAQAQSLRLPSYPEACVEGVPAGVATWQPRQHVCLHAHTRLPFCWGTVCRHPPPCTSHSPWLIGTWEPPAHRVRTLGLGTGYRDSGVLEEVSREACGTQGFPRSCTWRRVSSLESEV

[3] = target: Glutamate NMDA receptor; Grin1/Grin2a (Rattus norvegicus, UniProt P35439+Q00959); assay: Compound was tested in vitro for inhibition of NMDA response at cloned NR1A/2A receptor expressed in Xenopus oocytes; type: cell-based, frog, Oocyte
Chain of Glutamate NMDA receptor; Grin1/Grin2a (Q00959 whole entry, looked up, other chains not shown): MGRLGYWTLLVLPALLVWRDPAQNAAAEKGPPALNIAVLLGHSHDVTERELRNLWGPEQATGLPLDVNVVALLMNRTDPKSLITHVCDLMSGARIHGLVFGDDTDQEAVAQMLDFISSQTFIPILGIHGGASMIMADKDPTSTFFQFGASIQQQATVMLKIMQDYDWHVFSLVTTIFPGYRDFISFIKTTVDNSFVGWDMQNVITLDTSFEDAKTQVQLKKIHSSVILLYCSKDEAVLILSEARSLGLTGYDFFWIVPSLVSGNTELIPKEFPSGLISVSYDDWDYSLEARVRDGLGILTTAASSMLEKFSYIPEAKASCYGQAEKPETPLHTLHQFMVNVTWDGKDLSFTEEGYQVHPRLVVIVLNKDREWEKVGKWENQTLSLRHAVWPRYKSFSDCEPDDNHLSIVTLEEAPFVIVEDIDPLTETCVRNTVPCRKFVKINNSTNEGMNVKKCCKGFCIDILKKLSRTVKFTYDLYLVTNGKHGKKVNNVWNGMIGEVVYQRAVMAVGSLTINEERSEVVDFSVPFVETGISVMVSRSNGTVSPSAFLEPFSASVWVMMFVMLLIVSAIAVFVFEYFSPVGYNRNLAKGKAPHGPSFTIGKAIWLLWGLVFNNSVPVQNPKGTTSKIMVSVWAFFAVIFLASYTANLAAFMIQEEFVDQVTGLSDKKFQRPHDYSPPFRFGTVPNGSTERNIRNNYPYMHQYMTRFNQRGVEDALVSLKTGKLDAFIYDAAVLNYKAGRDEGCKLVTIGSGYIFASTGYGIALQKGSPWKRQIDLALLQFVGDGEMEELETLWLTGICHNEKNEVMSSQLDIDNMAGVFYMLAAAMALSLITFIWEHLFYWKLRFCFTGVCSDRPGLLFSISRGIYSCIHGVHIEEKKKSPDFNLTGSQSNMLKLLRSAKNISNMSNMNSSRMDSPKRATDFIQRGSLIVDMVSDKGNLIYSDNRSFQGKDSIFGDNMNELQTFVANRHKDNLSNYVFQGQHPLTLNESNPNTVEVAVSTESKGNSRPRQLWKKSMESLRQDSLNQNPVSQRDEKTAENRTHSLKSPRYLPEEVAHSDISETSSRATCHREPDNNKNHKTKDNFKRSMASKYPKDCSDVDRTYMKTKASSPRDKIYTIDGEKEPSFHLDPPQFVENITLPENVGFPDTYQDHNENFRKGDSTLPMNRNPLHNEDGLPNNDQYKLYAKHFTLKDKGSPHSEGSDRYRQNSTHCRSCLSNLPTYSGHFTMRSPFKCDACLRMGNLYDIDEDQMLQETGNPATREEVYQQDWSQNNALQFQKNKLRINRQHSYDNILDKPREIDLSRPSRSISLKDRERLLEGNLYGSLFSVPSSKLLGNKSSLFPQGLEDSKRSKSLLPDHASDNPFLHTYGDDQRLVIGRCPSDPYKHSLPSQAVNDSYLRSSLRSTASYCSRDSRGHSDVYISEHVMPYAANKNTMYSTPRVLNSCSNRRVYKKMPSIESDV

Rattus norvegicus = assay: Compound was tested in vivo for potentiation of L-DOPA effect in 6-hydroxydopamine-lesioned rat when administered per orally; type: functional; conditions: po, read-out: MED
[4] = target: T1, Glutamate NMDA receptor; Grin1/Grin2b; assay: The compound was tested in vitro for activity against NR1A/2B sub type of NMDA receptor; parameters: species or system frog
[5] = target: T2, Glutamate receptor ionotropic, NMDA 2C; assay: The compound was tested in vitro for activity against NR1A/2C sub type of NMDA receptor; parameters: species or system frog

IC50 [1] [µM] | IC50 [2] [µM] | IC50 [3] [µM] | SMILES | minimal effective dose (Rattus norvegicus) [mg/kg] | IC50 [4] [µM] | IC50 [5] [µM]
0.22 | > 100 | > 100 | OC1(Cc2ccccc2)CCN(CCC#Cc2c[nH]cn2)CC1 | > 10 | – | –
0.05 | > 100 | 40 | Fc1ccc(CC2CCN(CCC#Cc3c[nH]cn3)CC2)cc1 | > 10 | – | –
0.12 | 34 | 38 | C(#Cc1cnc[nH]1)CN1CCC(Cc2ccccc2)CC1 | 10 | – | –
0.19 | > 100 | 51 | C(#Cc1cc[nH]c1)CCN1CCC(Cc2ccccc2)CC1 | 30 | – | –
0.028 | 80 | 26 | Clc1ccc(CC2CCN(CCC#Cc3cnc[nH]3)CC2)cc1 | 10 | – | –
0.037 | 70 | 53 | C(#Cc1cnc[nH]1)CCN1CCC(Cc2ccccc2)CC1 | 3 | – | –
0.074 | > 100 | 67 | C(#Cc1cn[nH]c1)CCN1CCC(Cc2ccccc2)CC1 | 30 | – | –
1.1 | 56 | 53 | C(#Cc1cc[nH]c1)CN1CCC(Cc2ccccc2)CC1 | – | – | –
0.81 | 5 | 1.4 | C(#Cc1cnc[nH]1)CCN1CCC(c2ccccc2)CC1 | – | – | –
0.02 | 38 | 16 | Cc1ccc(CC2CCN(CCC#Cc3c[nH]cn3)CC2)cc1 | 10 | – | –

SMILES | IC50 [1] [µM] | IC50 [2] [µM] | IC50 [3] [µM] | minimal effective dose (Rattus norvegicus) [mg/kg] | IC50 [4] [µM] | IC50 [5] [µM]
C(#Cc1cn[nH]c1)CN1CCC(Cc2ccccc2)CC1 | – | – | > 100 | – | 0.82 | > 100
OC1(c2ccccc2)CCN(CCC#Cc2c[nH]cn2)CC1 | 3.5 | 36 | 8.4 | – | – | –
